How the values were obtained:
[1] = target: recombinant human baculovirus-expressed AXL (Homo sapiens (Human), UniProt P30530); assay: AXL Kinase Assay (HTRF KinEASE); type: biochemical; conditions: average of two or more determinations
Description: The ability of compounds to inhibit the kinase activity of recombinant human baculovirus-expressed AXL was measured by homogeneous TRF (HTRF) using Cisbio's KinEASE™ assay system in white 384-well Optiplates. Assay buffer contained 1 mM DTT, 2 mM MnCl2, 2% DMSO, […] supplement enzymatic buffer, and 1× enzymatic buffer. A 2× concentration of tyrosine kinase (TK) substrate-biotin/ATP mixture made in assay buffer was added to plates at 10 μL/well using the Multidrop Combi (Thermo Fisher Scientific, Waltham, Mass.). […] Compounds (100 nL), diluted in 100% DMSO on the Biomek FX, (Beckman Coulter, Inc., Brea, Calif.), were transferred to the assay plates using the Biomek FX pintool (2.5% final DMSO in assay). […] Plates were sealed, briefly shaken and incubated at 25° C. for 30 minutes. […] Plates were sealed, briefly shaken and incubated at 25° C. for 1 hour.
Inhibition curves for compounds were generated by plotting percent control activity versus log 10 of the concentration of compound. IC50 values were calculated by nonlinear regression using the sigmoidal dose-response (variable slope) equation in GraphPad Prism as follows: y=bottom+(top−bottom)/(1+10(log IC50−x)*Hill Slope) where y is the % kinase activity at a given concentration of compound, x is the logarithm of the concentration of compound, bottom is the % of control kinase activity at the highest compound concentration tested, and top is the % of control kinase activity at the lowest compound concentration examined. The values for bottom and top were fixed at 0 and 100, respectively.

[2] = target: recombinant human baculovirus-expressed cMET (Homo sapiens (Human), UniProt P08581); assay: C-MET Kinase Assay (HTRF KinEASE); type: biochemical; conditions: average of two or more determinations; read-out: c-MET IC50
How it was run: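 HTRF KinEASE format with recombinant human baculovirus-expressed cMET at 8 ng/mL, biotinylated peptide at 0.1 μM and ATP at 0.02 μM. IC50 came from percent control activity versus log concentration, fitted by nonlinear regression to a variable-slope sigmoidal equation with bottom fixed at 0 and top at 100.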

Compound | IC50 [1] | IC50 [2]
COc1cc2nccc(Oc3ccc(NC(=O)c4cn(CCC5OCCO5)c(=O)n(-c5ccc(F)cc5)c4=O)cc3F)c2cc1OC [Example 65, 1-[2-(1,3-Dioxolan-2-yl-ethyl)]-3-(4-fluoro-phenyl)-2,4-dioxo-1,2,3,4-tetrahydro-pyrimidine-5-carboxylic acid [4-(6,7-dimethoxy-quinolin-4-yloxy)-3-fluoro-phenyl]-amide] | < 0.01 µM | 0.01 to 0.1 µM
COc1cc2nccc(Oc3ccc(NC(=O)c4cn(CCF)c(=O)n(-c5ccc(F)cc5)c4=O)cc3F)c2cc1OC [Example 69, 1-(2-Fluoro-ethyl)-3-(4-fluoro-phenyl)-2,4-dioxo-1,2,3,4-tetrahydro-pyrimidine-5-carboxylic acid [4-(6,7-dimethoxy-quinolin-4-yloxy)-3-fluoro-phenyl]-amide] | < 0.01 µM | < 0.01 µM
COc1cc2nccc(Oc3ccc(NC(=O)c4cn(CC(=O)O)c(=O)n(-c5ccc(F)cc5)c4=O)cc3F)c2cc1OC [Example 71, [5-[4-(6,7-Dimethoxyquinolin-4-yloxy)-3-fluorophenylcarbamoyl]-3-(4-fluorophenyl)-2,4-dioxo-3,4-dihydro-2H-pyrimidin-1-yl]-acetic acid] | < 0.01 µM | < 0.01 µM
COc1cc2nccc(Oc3ccc(NC(=O)c4cn(Cc5ncco5)c(=O)n(-c5ccc(F)cc5)c4=O)cc3F)c2cc1OC [Example 72, 3-(4-Fluoro-phenyl)-1-oxazol-2-ylmethyl-2,4-dioxo-1,2,3,4-tetrahydro-pyrimidine-5-carboxylic acid [4-(6,7-dimethoxy-quinolin-4-yloxy)-3-fluoro-phenyl]-amide] | < 0.01 µM | 0.01 to 0.1 µM
COc1cc2nccc(Oc3ccc(NC(=O)c4cn(CC5CCCO5)c(=O)n(-c5ccc(F)cc5)c4=O)cc3F)c2cc1OC (stereo not shown) [Example 73, 3-(4-Fluoro-phenyl)-2,4-dioxo-1-(tetrahydro-furan-2-ylmethyl)-1,2,3,4-tetrahydro-pyrimidine-5-carboxylic acid [4-(6,7-dimethoxy-quinolin-4-yloxy)-3-fluoro-phenyl]-amide] | < 0.01 µM | 0.01 to 0.1 µM
COc1cc2nccc(Oc3ccc(NC(=O)c4cn(CC5CCOCC5)c(=O)n(-c5ccc(F)cc5)c4=O)cc3F)c2cc1OC [Example 74, 3-(4-Fluoro-phenyl)-2,4-dioxo-1-(tetrahydro-pyran-4-ylmethyl)-1,2,3,4-tetrahydro-pyrimidine-5-carboxylic acid [4-(6,7-dimethoxy-quinolin-4-yloxy)-3-fluoro-phenyl]-amide] | < 0.01 µM | 0.01 to 0.1 µM
COc1cc2nccc(Oc3ccc(NC(=O)c4cn(Cc5ccccc5)c(=O)n(-c5ccc(F)cc5)c4=O)cc3F)c2cc1OC [Example 77, 1-Benzyl-3-(4-fluoro-phenyl)-2,4-dioxo-1,2,3,4-tetrahydro-pyrimidine-5-carboxylic acid [4-(6,7-dimethoxy-quinolin-4-yloxy)-3-fluoro-phenyl]-amide] | < 0.01 µM | 0.01 to 0.1 µM
COc1cc2nccc(Oc3ccc(NC(=O)c4cn(CCc5ccccc5F)c(=O)n(-c5ccc(F)cc5)c4=O)cc3F)c2cc1OC [Example 78, 3-(4-Fluoro-phenyl)-1-[2-(2-fluoro-phenyl)-ethyl]-2,4-dioxo-1,2,3,4-tetrahydro-pyrimidine-5-carboxylic acid [4-(6,7-dimethoxy-quinolin-4-yloxy)-3-fluoro-phenyl]-amide] | < 0.01 µM | 0.01 to 0.1 µM
COc1cc2nccc(Oc3ccc(NC(=O)c4cn(CCc5ccc(F)cc5)c(=O)n(-c5ccc(F)cc5)c4=O)cc3F)c2cc1OC [Example 79, 3-(4-Fluoro-phenyl)-1-[2-(4-fluoro-phenyl)-ethyl]-2,4-dioxo-1,2,3,4-tetrahydro-pyrimidine-5-carboxylic acid [4-(6,7-dimethoxy-quinolin-4-yloxy)-3-fluoro-phenyl]-amide] | < 0.01 µM | 0.01 to 0.1 µM
COc1cc2nccc(Oc3ccc(NC(=O)c4cn(CC(=O)N5CCCC5)c(=O)n(-c5ccc(F)cc5)c4=O)cc3F)c2cc1OC [Example 82, 3-(4-Fluoro-phenyl)-2,4-dioxo-1-(2-oxo-2-pyrrolidin-1-yl-ethyl)-1,2,3,4-tetrahydro-pyrimidine-5-carboxylic acid [4-(6,7-dimethoxy-quinolin-4-yloxy)-3-fluoro-phenyl]-amide] | < 0.01 µM | 0.01 to 0.1 µM
COc1cc2nccc(Oc3ccc(NC(=O)c4cn(CC(=O)N(C)C)c(=O)n(-c5ccc(F)cc5)c4=O)cc3F)c2cc1OC [Example 83, 1-Dimethylcarbamoylmethyl-3-(4-fluorophenyl)-2,4-dioxo-1,2,3,4-tetrahydro-pyrimidine-5-carboxylic acid [4-(6,7-dimethoxy-quinolin-4-yloxy)-3-fluorophenyl]-amide] | < 0.01 µM | 0.01 to 0.1 µM
COc1cc2nccc(Oc3ccc(NC(=O)c4c[nH]c(=O)n(-c5ccc(F)cc5)c4=O)c(F)c3)c2cc1OC [Example 85, 3-(4-Fluoro-phenyl)-2,4-dioxo-1,2,3,4-tetrahydro-pyrimidine-5-carboxylic acid [4-(6,7-dimethoxy-quinolin-4-yloxy)-2-fluoro-phenyl]-amide] | < 0.01 µM | < 0.01 µM

Continued, values first:

IC50 [1] | IC50 [2] | Compound
< 0.01 µM | 0.01 to 0.1 µM | COc1cc2nccc(Cc3ccc(NC(=O)c4cn(C)c(=O)n(-c5ccc(F)cc5)c4=O)cc3F)c2cc1OC [Example 58, 3-(4-fluoro-phenyl)-1-methyl-2,4-dioxo-1,2,3,4-tetrahydro-pyrimidine-5-carboxylic acid [4-(6,7-dimethoxy-quinolin-4-ylmethyl)-3-fluoro-phenyl]-amide]
< 0.01 µM | < 0.01 µM | C#CCn1cc(C(=O)Nc2ccc(Oc3ccnc4cc(OC)c(OC)cc34)c(F)c2)c(=O)n(-c2ccc(F)cc2)c1=O [Example 61, 3-(4-Fluoro-phenyl)-2,4-dioxo-1-prop-2-ynyl-1,2,3,4-tetrahydro-pyrimidine-5-carboxylic acid [4-(6,7-dimethoxy-quinolin-4-yloxy)-3-fluoro-phenyl]-amide]
< 0.01 µM | < 0.01 µM | COc1cc2nccc(Oc3ccc(NC(=O)c4cn(CCn5ccnc5)c(=O)n(-c5ccc(F)cc5)c4=O)cc3F)c2cc1OC [Example 62, 3-(4-Fluoro-phenyl)-1-(2-imidazol-1-yl-ethyl)-2,4-dioxo-1,2,3,4-tetrahydro-pyrimidine-5-carboxylic acid [4-(6,7-dimethoxy-quinolin-4-yloxy)-3-fluoro-phenyl]-amide]
< 0.01 µM | < 0.01 µM | COc1cc2nccc(Oc3ccc(NC(=O)c4cn(CCn5cccn5)c(=O)n(-c5ccc(F)cc5)c4=O)cc3F)c2cc1OC [Example 63, 3-(4-Fluoro-phenyl)-2,4-dioxo-1-(2-pyrazol-1-yl-ethyl)-1,2,3,4-tetrahydro-pyrimidine-5-carboxylic acid [4-(6,7-dimethoxy-quinolin-4-yloxy)-3-fluoro-phenyl]-amide]
< 0.01 µM | 0.01 to 0.1 µM | COc1cc2nccc(Oc3ccc(NC(=O)c4cn(CCc5ccccc5)c(=O)n(-c5ccc(F)cc5)c4=O)cc3F)c2cc1OC [Example 64, 3-(4-Fluoro-phenyl)-2,4-dioxo-1-phenethyl-1,2,3,4-tetrahydro-pyrimidine-5-carboxylic acid [4-(6,7-dimethoxy-quinolin-4-yloxy)-3-fluoro-phenyl]-amide]
< 0.01 µM | < 0.01 µM | CCN(CC)C(=O)Cn1cc(C(=O)Nc2ccc(Oc3ccnc4cc(OC)c(OC)cc34)c(F)c2)c(=O)n(-c2ccc(F)cc2)c1=O [Example 66, 1-Diethylcarbamoylmethyl-3-(4-fluoro-phenyl)-2,4-dioxo-1,2,3,4-tetrahydro-pyrimidine-5-carboxylic acid [4-(6,7-dimethoxy-quinolin-4-yloxy)-3-fluoro-phenyl]-amide]
< 0.01 µM | 0.01 to 0.1 µM | COc1cc2nccc(Oc3ccc(NC(=O)c4cn(CC(=O)N5CCOCC5)c(=O)n(-c5ccc(F)cc5)c4=O)cc3F)c2cc1OC [Example 67, 3-(4-Fluoro-phenyl)-1-(2-morpholin-4-yl-2-oxo-ethyl)-2,4-dioxo-1,2,3,4-tetrahydro-pyrimidine-5-carboxylic acid [4-(6,7-dimethoxy-quinolin-4-yloxy)-3-fluoro-phenyl]-amide]
< 0.01 µM | < 0.01 µM | COc1cc2nccc(Oc3ccc(NC(=O)c4cn(CCN5CCCC5=O)c(=O)n(-c5ccc(F)cc5)c4=O)cc3F)c2cc1OC [Example 68, 3-(4-Fluoro-phenyl)-2,4-dioxo-1-[2-(2-oxo-pyrrolidin-1-yl)-ethyl]-1,2,3,4-tetrahydro-pyrimidine-5-carboxylic acid [4-(6,7-dimethoxy-quinolin-4-yloxy)-3-fluoro-phenyl]-amide]

From US9745283B2, “Uracil derivatives as AXL and c-MET kinase inhibitors” (priority 2011, dated 2017)
